Data as given in US20260315464A1, “COMPOSITIONS, METHODS, AND SYSTEMS FOR MODULATING SPLICING OF MSH3” (REVIR THERAPEUTICS, INC., priority 2023, published 2026).

Tested on: MSH3
Assay: QPCR assay for levels of MSH3 upon compound treatment in HEK293T or AD293 cells (fold-change of MSH3 transcript, EC50 of MSH3 downregulation; total MSH3 exons 13/14, exons 20/21; Table 8)
Type: cell-based
Details: for mrna remaining at 1 µM / mrna remaining at 10 µM: Homo sapiens, fold-change of the MSH3 transcript, normalized to GAPDH; for mrna remaining at 1 µM: 1 μM compound; for mrna remaining at 10 µM: 10 μM compound; for EC50: EC50 of MSH3 downregulation, XtalPi
Method in brief: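 MSH3 mRNA was quantified by TaqMan qPCR covering exons 13/14, exons 20/21, exon 13/PE14A and exon 20/PE21A, with GAPDH as reference. Cells used were HEK293T or AD293, treated with compound at 1 μM and […].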

CN(c1ccc(N2Cc3ccc(-c4cnn(C)n4)cc3C2=O)nn1)C1CC(C)(C)NC(C)(C)C1 [Compound 370, 2-(6-(methyl(2,2,6,6-tetramethylpiperidin-4-yl)amino)pyridazin-3-yl)-6-(2-methyl-2H-1,2,3-triazol-4-yl)isoindolin-1-one]
mrna remaining at 1 µM: 69% | mrna remaining at 10 µM: 61%

[2H]C([2H])([2H])n1cc(-c2ccc3c(c2)C(=O)N(c2ccc(N(C)[C@H]4C[C@]5(C)CC[C@](C)(C4)N5)nn2)C3)cn1 [Compound 387, 2-(6-(((1R,3s,5S)-1,5-dimethyl-8-azabicyclo[3.2.1]octan-3-yl)(methyl)amino)pyridazin-3-yl)-6-(1-(methyl-d3)-1H-pyrazol-4-yl)isoindolin-1-one]
mrna remaining at 1 µM: 96% | mrna remaining at 10 µM: 63%

Cn1cc(-c2ccc3c(c2)C(=O)N(c2ccc(N4CCN[C@@H](C(C)(C)C)C4)nn2)C3)cn1 [Compound 399, (S)-2-(6-(3-(tert-butyl)piperazin-1-yl)pyridazin-3-yl)-6-(1-methyl-1H-pyrazol-4-yl)isoindolin-1-one]
mrna remaining at 1 µM: 65% | mrna remaining at 10 µM: 43%

Cc1nn(C)cc1-c1ccc2c(c1)C(=O)N(c1ccc(O[C@H]3C[C@]4(C)CC[C@](C)(C3)N4)nn1)C2 [Compound 416, 6-(1,3-dimethyl-1H-pyrazol-4-yl)-2-(6-(((1R,3s,5S)-1,5-dimethyl-8-azabicyclo[3.2.1]octan-3-yl)oxy)pyridazin-3-yl)isoindolin-1-one]
mrna remaining at 1 µM: 37%

CN(c1ncc(N2Cc3ccc(-c4cnn(C)n4)cc3C2=O)nn1)C1CC(C)(C)NC(C)(C)C1 [Compound 420, 2-(3-(methyl(2,2,6,6-tetramethylpiperidin-4-yl)amino)-1,2,4-triazin-6-yl)-6-(2-methyl-2H-1,2,3-triazol-4-yl)isoindolin-1-one]
mrna remaining at 1 µM: 74% | mrna remaining at 10 µM: 73%

Cc1nn(C)cc1-c1ccc2c(c1)C(=O)N(c1ccc(N(C)[C@H]3C[C@]4(C)CC[C@](C)(C3)N4)nn1)C2 [Compound 423, 6-(1,3-dimethyl-1H-pyrazol-4-yl)-2-(6-(((1R,3s,5S)-1,5-dimethyl-8-azabicyclo[3.2.1]octan-3-yl)(methyl)amino)pyridazin-3-yl)isoindolin-1-one]
mrna remaining at 1 µM: 37% | mrna remaining at 10 µM: 10%

Cn1ncc(-c2ccc3c(c2)C(=O)N(c2ccc(O[C@H]4C[C@]5(C)CC[C@](C)(C4)N5)nn2)C3)n1 [Compound 425, 2-(6-(((1R,3s,5S)-1,5-dimethyl-8-azabicyclo[3.2.1]octan-3-yl)oxy)pyridazin-3-yl)-6-(2-methyl-2H-1,2,3-triazol-4-yl)isoindolin-1-one]
mrna remaining at 1 µM: 82% | mrna remaining at 10 µM: 70%

CN(c1ncc(N2Cc3ccc(-c4cnn(C)n4)cc3C2=O)nn1)[C@H]1C[C@]2(C)CC[C@](C)(C1)N2 [Compound 429, 2-(3-(((1R,3s,5S)-1,5-dimethyl-8-azabicyclo[3.2.1]octan-3-yl)(methyl)amino)-1,2,4-triazin-6-yl)-6-(2-methyl-2H-1,2,3-triazol-4-yl)isoindolin-1-one]
mrna remaining at 1 µM: 102% | mrna remaining at 10 µM: 52%

Cc1nn(C)cc1-c1ccc2c(c1)C(=O)N(c1ccc(OC3CC(C)(C)NC4(CC4)C3)nn1)C2 (centres unmarked) [Compound 438, 6-(1,3-dimethyl-1H-pyrazol-4-yl)-2-(6-((5,5-dimethyl-4-azaspiro[2.5]octan-7-yl)oxy)pyridazin-3-yl)isoindolin-1-one]
mrna remaining at 1 µM: 109% | mrna remaining at 10 µM: 81%

Cc1nn(C)nc1-c1ccc2c(c1)C(=O)N(c1ccc(O[C@H]3C[C@]4(C)CC[C@](C)(C3)N4)nn1)C2 [Compound 439, 6-(2,5-dimethyl-2H-1,2,3-triazol-4-yl)-2-(6-(((1R,3s,5S)-1,5-dimethyl-8-azabicyclo[3.2.1]octan-3-yl)oxy)pyridazin-3-yl)isoindolin-1-one]
mrna remaining at 1 µM: 87% | mrna remaining at 10 µM: 72%

Cc1nn(C)cc1-c1cc(Cl)c2c(c1)C(=O)N(c1ccc(O[C@H]3C[C@]4(C)CC[C@](C)(C3)N4)nn1)C2 [Compound 447, 4-chloro-6-(1,3-dimethyl-1H-pyrazol-4-yl)-2-(6-(((1R,3s,5S)-1,5-dimethyl-8-azabicyclo[3.2.1]octan-3-yl)oxy)pyridazin-3-yl)isoindolin-1-one]
mrna remaining at 1 µM: 94%

Cc1nn(C)cc1-c1cc2c(cn1)CN(c1ccc(OC3CCC(C)(C)NC(C)(C)C3)nn1)C2=O (centres unmarked) [Compound 457, 6-(1,3-dimethyl-1H-pyrazol-4-yl)-2-(6-((2,2,7,7-tetramethylazepan-4-yl)oxy)pyridazin-3-yl)-2,3-dihydro-1H-pyrrolo[3,4-c]pyridin-1-one]
mrna remaining at 1 µM: 85% | mrna remaining at 10 µM: 70%

Cn1cc(-c2cc3c(cn2)CN(c2ccc(O[C@H]4C[C@]5(C)CC[C@](C)(C4)N5)nn2)C3=O)c(Cl)n1 [Compound 458, 6-(3-chloro-1-methyl-1H-pyrazol-4-yl)-2-(6-(((1R,3s,5S)-1,5-dimethyl-8-azabicyclo[3.2.1]octan-3-yl)oxy)pyridazin-3-yl)-2,3-dihydro-1H-pyrrolo[3,4-c]pyridin-1-one]
EC50: 820 nM | mrna remaining at 1 µM: 40% | mrna remaining at 10 µM: 11%

Cn1nc(Cl)c(-c2cc3c(cn2)CN(c2ccc(O[C@H]4C[C@]5(C)CC[C@](C)(C4)N5)nn2)C3=O)n1 [Compound 460, 6-(5-chloro-2-methyl-2H-1,2,3-triazol-4-yl)-2-(6-(((1R,3s,5S)-1,5-dimethyl-8-azabicyclo[3.2.1]octan-3-yl)oxy)pyridazin-3-yl)-2,3-dihydro-1H-pyrrolo[3,4-c]pyridin-1-one]
mrna remaining at 1 µM: 80% | mrna remaining at 10 µM: 25%

Cn1ncc(-c2cc3c(cn2)CN(c2ccc(OC4CCC(C)(C)NC(C)(C)C4)nn2)C3=O)n1 (centres unmarked) [Compound 465, 6-(2-methyl-2H-1,2,3-triazol-4-yl)-2-(6-((2,2,7,7-tetramethylazepan-4-yl)oxy)pyridazin-3-yl)-2,3-dihydro-1H-pyrrolo[3,4-c]pyridin-1-one]
mrna remaining at 1 µM: 93% | mrna remaining at 10 µM: 115%

Cc1nn(C)cc1-c1cnc2c(c1)C(=O)N(c1ccc(OC3CCC(C)(C)NC(C)(C)C3)nn1)C2 (centres unmarked) [Compound 479, 3-(1,3-dimethyl-1H-pyrazol-4-yl)-6-(6-((2,2,7,7-tetramethylazepan-4-yl)oxy)pyridazin-3-yl)-6,7-dihydro-5H-pyrrolo[3,4-b]pyridin-5-one]
mrna remaining at 1 µM: 119% | mrna remaining at 10 µM: 56%

Cn1nc(Cl)c(-c2cnc3c(c2)C(=O)N(c2ccc(O[C@H]4C[C@]5(C)CC[C@](C)(C4)N5)nn2)C3)n1 [Compound 480, 3-(5-chloro-2-methyl-2H-1,2,3-triazol-4-yl)-6-(6-(((1R,3s,5S)-1,5-dimethyl-8-azabicyclo[3.2.1]octan-3-yl)oxy)pyridazin-3-yl)-6,7-dihydro-5H-pyrrolo[3,4-b]pyridin-5-one]
EC50: 363 nM | mrna remaining at 1 µM: 15% | mrna remaining at 10 µM: 10%

Cn1ncc(-c2cnc3c(c2)C(=O)N(c2ccc(OC4CCC(C)(C)NC(C)(C)C4)nn2)C3)n1 (centres unmarked) [Compound 485, 3-(2-methyl-2H-1,2,3-triazol-4-yl)-6-(6-((2,2,7,7-tetramethylazepan-4-yl)oxy)pyridazin-3-yl)-6,7-dihydro-5H-pyrrolo[3,4-b]pyridin-5-one]
mrna remaining at 1 µM: 88% | mrna remaining at 10 µM: 40%

Cc1nn(C)cc1-c1cnc2c(c1)C(=O)N(c1ccc(N(C3CC3)C3CC(C)(C)NC(C)(C)C3)nn1)C2 [Compound 487, 6-(6-(cyclopropyl(2,2,6,6-tetramethylpiperidin-4-yl)amino)pyridazin-3-yl)-3-(1,3-dimethyl-1H-pyrazol-4-yl)-6,7-dihydro-5H-pyrrolo[3,4-b]pyridin-5-one]
mrna remaining at 1 µM: 133% | mrna remaining at 10 µM: 31%

Cn1nc(Cl)c(-c2cnc3c(c2)C(=O)N(c2ccc(OC4CCC(C)(C)NC(C)(C)C4)nn2)C3)n1 (centres unmarked) [Compound 488, 3-(5-chloro-2-methyl-2H-1,2,3-triazol-4-yl)-6-(6-((2,2,7,7-tetramethylazepan-4-yl)oxy)pyridazin-3-yl)-6,7-dihydro-5H-pyrrolo[3,4-b]pyridin-5-one]
mrna remaining at 1 µM: 69% | mrna remaining at 10 µM: 19%

Cc1nn(C)cc1-c1cnc2c(c1)C(=O)N(c1ccc(S[C@H]3C[C@]4(C)CC[C@](C)(C3)N4)nn1)C2 [Compound 490, 3-(1,3-dimethyl-1H-pyrazol-4-yl)-6-(6-(((1R,3s,5S)-1,5-dimethyl-8-azabicyclo[3.2.1]octan-3-yl)thio)pyridazin-3-yl)-6,7-dihydro-5H-pyrrolo[3,4-b]pyridin-5-one]
mrna remaining at 1 µM: 90% | mrna remaining at 10 µM: 25%

Cn1nc(Cl)c(-c2cnc3c(c2)C(=O)N(c2ccc(OC4CC(C)(C)NC(C)(C)C4)nn2)C3)n1 [Compound 493, 3-(5-chloro-2-methyl-2H-1,2,3-triazol-4-yl)-6-(6-((2,2,6,6-tetramethylpiperidin-4-yl)oxy)pyridazin-3-yl)-6,7-dihydro-5H-pyrrolo[3,4-b]pyridin-5-one]
mrna remaining at 1 µM: 57% | mrna remaining at 10 µM: 13%

Cc1nn(C)cc1-c1cnc2c(n1)C(=O)N(c1ccc(N(C)[C@H]3C[C@]4(C)CC[C@](C)(C3)N4)nn1)C2 [Compound 496, 3-(1,3-dimethyl-1H-pyrazol-4-yl)-6-(6-(((1R,3s,5S)-1,5-dimethyl-8-azabicyclo[3.2.1]octan-3-yl)(methyl)amino)pyridazin-3-yl)-6,7-dihydro-5H-pyrrolo[3,4-b]pyrazin-5-one]
EC50: 690 nM

Cn1ncc(-c2cnc3c(n2)C(=O)N(c2ccc(O[C@H]4C[C@]5(C)CC[C@](C)(C4)N5)nn2)C3)n1 [Compound 498, 6-(6-(((1R,3s,5S)-1,5-dimethyl-8-azabicyclo[3.2.1]octan-3-yl)oxy)pyridazin-3-yl)-3-(2-methyl-2H-1,2,3-triazol-4-yl)-6,7-dihydro-5H-pyrrolo[3,4-b]pyrazin-5-one]
mrna remaining at 1 µM: 67% | mrna remaining at 10 µM: 52%
